This passage reports Activity and inhibition results from ChEMBL document CHEMBL3046443, “Lipid lowering and antioxidant activity of flavones in triton treated hyperlipidemic rats” (2011).

Type in all cases: functional
Experiment [1] is described as follows: Antioxidant activity assessed as hydroxyl radical scavenging activity at 200 ug/ml.
The subject of experiment [2] is Rattus norvegicus. The experiment is described as follows: Antihyperlipidemic activity in Rattus norvegicus Charles Foster (rat) trition WR-1339-induced hyperlipidemic model assessed as reduction of total triglyceride level in plasma at 200 mg/kg, po. Also noted: scale not given: the % may be the effect or the level left.
In experiment [3] the test system is Rattus norvegicus. Description: Antihyperlipidemic activity in Rattus norvegicus Charles Foster (rat) trition WR-1339-induced hyperlipidemic model assessed as reduction of total phospholipid level in plasma at 200 mg/kg, po. The arrangement: scale not given: the % may be the effect or the level left.
Experiment [4] deals with Rattus norvegicus. Description: Antihyperlipidemic activity in Rattus norvegicus Charles Foster (rat) trition WR-1339-induced hyperlipidemic model assessed as reduction of total cholesterol level in plasma at 200 mg/kg, po. Also noted: scale not given: the % may be the effect or the level left.
The nature of experiment [5]: Antioxidant activity assessed as hydroxyl radical scavenging activity at 100 ug/ml.
A short description of experiment [6]: Antioxidant activity assessed as inhibition of xanthine-xanthine oxidase generated superoxide anion radical production at 100 ug/ml after 30 min by NBT reduction assay.
Experiment [7] is described as follows: Antioxidant activity assessed as inhibition of xanthine-xanthine oxidase generated superoxide anion radical production at 200 ug/ml after 30 min by NBT reduction assay.

Consider `OC[C@@H](O)[C@@H](O)[C@H](O)[C@H](O)CO`, for which, in experiment [1], the Activity is -48%.
With `C/C=C1\C(=O)C[C@H]2[C@@H]3CCC4=CC(=O)CC[C@]4(C)[C@H]3CC[C@]12C` [GUGGULSTERONE], the Activity is on record as 36% in the experiment on Rattus norvegicus [2], 35% in the experiment on Rattus norvegicus [3] and 35% with Rattus norvegicus [4].
What is called inhibition is the change of the read-out against control, counted positive when it falls. For the compound `O=c1c(O)c(-c2cc(O)c(O)c(O)c2)oc2cc(O)cc(O)c12` [MYRICETIN], the Activity was 53% in experiment [1]; -36% in experiment [5]; 24% in the experiment on Rattus norvegicus [2]; 25% in the experiment on Rattus norvegicus [3]; 24% with Rattus norvegicus [4]. Besides, the inhibition in experiment [6] came out at 27%.
Consider `O.O=C1CC(c2ccc(O)cc2)Oc2cc(O)cc(O)c21` (centres undefined) [NARINGENIN HYDRATE], for which the Activity in experiment [1] came out at 38%; in experiment [5], 26%; in the experiment on Rattus norvegicus [2] it was 26%; in the experiment on Rattus norvegicus [3] it was 27%; in the experiment on Rattus norvegicus [4] it was 27%. The inhibition in experiment [7] came out at 34%; in experiment [6] it was 19%.
Take `C[C@@H]1O[C@@H](OC[C@H]2O[C@@H](Oc3c(-c4ccc(O)c(O)c4)oc4cc(O)cc(O)c4c3=O)[C@H](O)[C@@H](O)[C@@H]2O)[C@H](O)[C@H](O)[C@H]1O` [RUTIN]: the Activity in experiment [1] is 32%; in experiment [5] it was 21%; in the experiment with Rattus norvegicus [2], 11%; with Rattus norvegicus [3], 10%; in the experiment with Rattus norvegicus [4], 8%. The figures for the inhibition in experiment [7] and in experiment [6] were 35% and 18%, respectively.
